Legend:
[1] = Qualitative gelation assay in PBS; format: physicochemical; conditions: 10 mg/mL DMSO stock added to 1×PBS pH 7.4
Description: Gel formation of the teixobactin analogues was compared to that of the O-acyl isopeptide prodrugs in a qualitative gelation assay. In this experiment, a 10 mg/mL stock solution of the peptide trifluoroacetate salt in DMSO is added to 1×PBS buffer at pH 7.4 and gel formation is observed over time. Crystal violet is added to the PBS buffer to facilitate the visualization of the gels by providing contrast. […] In contrast, when the Lys10-teixobactin prodrugs are added, no immediate gel formation occurs.
Gelation assays of the O-acyl isopeptide prodrug analogues of teixobactin were performed using procedures previously reported. See K. Chen, et al., Chem. Commun. 2017, 53, 11357-11359, the disclosure of which is herein incorporated by reference.

[2] = test system: human red blood cells; test: Hemolytic assay; format: cell-based
Description: The hemolytic activity of the O-acyl isopeptide prodrugs and the corresponding teixobactin analogues were evaluated with human red blood cells (FIGS. 9A to 9H). Triton X-100 and melittin were used as positive controls and vancomycin and water (vehicle) were used as negative controls in the hemolysis assays. […] In contrast, 0.002% polysorbate 80 had no effect on the hemolytic activity of Lys10-teixobactin and Leu10-teixobactin and little effect on the corresponding O-acyl isopeptide prodrug analogues. When the hemolysis assays were performed with teixobactin, no hemolysis was observed up to 100 μg/mL without polysorbate 80 and modest hemolysis (4%) at 100 μg/mL with 0.002% polysorbate 80.
Preparation of Phosphate-Buffered Saline (PBS) Buffers. A 10×PBS buffer was prepared by dissolving 8.9 g of Na2HPO4, 1.2 g KH2PO4, 40 g NaCl, and 1 g KCl in 500 mL of 18 MO deionized water. The solution was stirred until the buffer salts were completely dissolved. The pH of the 10×PBS buffer was adjusted to 7.4 using either 1 M HCl or 1 M NaOH and was subsequently sterile filtered. To create a 1×PBS buffer, the 10×PBS buffer was diluted 10-fold using 18 MO deionized water. Another 1×PBS buffer was made, supplemented with 0.002% polysorbate 80.
Preparation of human red blood cells. Whole human blood was stored in a 4° C. in K2 EDTA to prevent coagulation. On the day of cell treatment, the blood was centrifuged at 800×g for 5 min at 4° C. to isolate red blood cells (RBCs). The plasma layer was then removed and discarded. Approximately 3 mL of 150 mM NaCl solution was added to the RBCs and mixed gently by inversion. The RBCs were centrifuged at 800×g for 8 min at 4° C. and the supernatant was discarded. An additional wash with 150 mM NaCl was performed, centrifuged at 800×g for 8 min at 4° C. and the supernatant was discarded. 2 mL of whole RBCs were transferred to a 15-mL conical tube. Approximately 4 mL of 1×PBS was added to the RBCs and inverted gently to mix. The RBCs were centrifuged at 800×g for 8 min at 4° C. […]
Hemolytic assay readout. […]

[3] = test system: four Gram-positive bacteria (methicillin-susceptible and methicillin-resistant S. aureus, B. subtilis, S. epidermidis); format: cell-based
Description: The antibiotic activity of the teixobactin O-acyl isopeptide prodrugs was evaluated using minimum inhibitory concentration (MIC) assays with four Gram-positive bacteria and compared the MIC values to those of the parent teixobactin analogues. Methicillin-susceptible and methicillin-resistant S. aureus were used as representative pathogens and B. subtilis and S. epidermidis as additional Gram-positive bacteria, and E. coli was used as a Gram-negative control. The activities of the teixobactin analogues and prodrugs were compared to those of teixobactin and vancomycin.
Bacillus subtilis (ATCC 6051), Staphylococcus epidermidis (ATCC 14990), Staphylococcus aureus (ATCC 29213), and Escherichia coli(ATCC 10798) were cultured from glycerol stocks in Mueller-Hinton broth overnight in a shaking incubator at 37° C. Staphylococcus aureus (ATCC 700698) was cultured from a glycerol stock in brain heart infusion broth overnight in a shaking incubator at 37° C. An aliquot of a 1 mg/mL antibiotic stock solution in DMSO was diluted with appropriate culture media to make a 64 μg/mL solution. […] The overnight cultures of each bacterium were diluted with Mueller-Hinton broth to an OD600 of 0.075 as measured for 200 μL in a 96-well plate. […] The OD600 were measured using a 96-well UV/vis plate reader (MultiSkan GO, Thermo Scientific). […]

| gel formation immediately upon addition to PBS [1] | MIC [3] | SMILES | effect of 0.002% polysorbate 80 on hemolytic activity [2] | hemolysis ([2]; concentrations up to 100 μg/mL, with and without 0.002% polysorbate 80) |
| --- | --- | --- | --- | --- |
| form gels immediately | – | CC[C@H](C)[C@H](NC(=O)[C@@H](Cc1ccccc1)NC)C(=O)N[C@@H](CO)C(=O)N[C@H](CCC(N)=O)C(=O)N[C@@H](C(=O)N[C@H](C(=O)N[C@@H](CO)C(=O)N[C@H]1C(=O)N[C@@H](C)C(=O)N[C@@H](CC(C)C)C(=O)N[C@@H]([C@@H](C)CC)C(=O)O[C@H]1C)[C@@H](C)CC)[C@@H](C)CC [Leu10-teixobactin] | no effect | – |
| – | – | CN[C@H](CC(C)C)C(=O)N[C@H]1C(=O)N[C@@H](CC(N)=O)C(=O)N[C@H]2C(=O)N[C@H]3C(=O)N[C@H](C(=O)N[C@H](C(=O)O)c4cc(O)cc(O)c4-c4cc3ccc4O)[C@H](O)c3ccc(c(Cl)c3)Oc3cc2cc(c3O[C@@H]2O[C@H](CO)[C@@H](O)[C@H](O)[C@H]2O[C@H]2C[C@](C)(N)[C@H](O)[C@H](C)O2)Oc2ccc(cc2Cl)[C@H]1O [vancomycin] | – | No hemolysis |
| form gels immediately | – | CC[C@H](C)[C@H](NC(=O)[C@@H](Cc1ccccc1)NC)C(=O)N[C@@H](CO)C(=O)N[C@H](CCC(N)=O)C(=O)N[C@@H](C(=O)N[C@H](C(=O)N[C@@H](CO)C(=O)N[C@H]1C(=O)N[C@@H](C)C(=O)N[C@@H](CCCNC(=N)N)C(=O)N[C@@H]([C@@H](C)CC)C(=O)O[C@H]1C)[C@@H](C)CC)[C@@H](C)CC [Arg10-teixobactin] | – | – |

| SMILES | gel formation immediately upon addition to PBS [1] | MIC [3] | effect of 0.002% polysorbate 80 on hemolytic activity [2] | hemolysis ([2]; concentrations up to 100 μg/mL, with and without 0.002% polysorbate 80) |
| --- | --- | --- | --- | --- |
| CC[C@H](C)[C@H](NC(=O)[C@@H](Cc1ccccc1)NC)C(=O)N[C@@H](CO)C(=O)N[C@H](CCC(N)=O)C(=O)N[C@@H](C(=O)N[C@H](C(=O)N[C@@H](CO)C(=O)N[C@H]1C(=O)N[C@@H](C)C(=O)N[C@@H](CCCCN)C(=O)N[C@@H]([C@@H](C)CC)C(=O)O[C@H]1C)[C@@H](C)CC)[C@@H](C)CC [Lys10-teixobactin] | large gelatinous aggregates form immediately | 2 to 4 µg/mL | no effect | – |

Source: US20250011366A1, “Prodrugs of Antibiotic Teixobactin” (priority 2021, published 2025)
